Experimental data taken from article PMC12736255, “Reinvestigating Pyrrol-2-One-Based Compounds: From Antimicrobial Agents to Promising Antitumor Candidates” (Pharmaceuticals, 2025).

What was measured:
Experiment in all cases: NCI-60 single-dose screen
Assay type in all cases: cell-based
786-0 = conditions: Homo sapiens; 786-0, 10^–5 M; read-out: GI (%)
Excerpt: (§1) In the next step, all synthesized compounds were electronically submitted and accepted for testing to the National Cancer Institute (NCI) platform, for the single dose (10^−5 M) screening against a panel of 60 human tumor cell lines, representing leukemia, melanoma, and cancers of the lung, colon, central nervous system, ovary, kidney, prostate, and breast. The results are summarized in Table 2, with the best values highlighted in red (Figures S1–S14).

A498 = conditions: Homo sapiens; A498, 10^–5 M; read-out: GI (%)
Excerpt: as §1

CAKI-1 = conditions: Homo sapiens; CAKI-1, 10^–5 M; read-out: GI (%)
Excerpt: as §1

CCRF-CEM = conditions: Homo sapiens, 10^–5 M, read-out: GI (%)
Excerpt: as §1

COLO205 = conditions: Homo sapiens, COLO 205; COLO205, 10^–5 M; read-out: GI (%)
Excerpt: as §1

DU-145 = conditions: Homo sapiens; DU-145, 10^–5 M; read-out: GI (%)
Excerpt: as §1

HCC-2998 = conditions: Homo sapiens; HCC-2998, 10^–5 M; read-out: GI (%)
Excerpt: as §1

HCT-15 = conditions: Homo sapiens; HCT-15, 10^–5 M; read-out: GI (%)
Excerpt: as §1

HL-60(TB) = conditions: Homo sapiens, 10^–5 M, read-out: GI (%)
Excerpt: as §1

HOP-92 = conditions: Homo sapiens; HOP-92, 10^–5 M; read-out: GI (%)
Excerpt: as §1

HT-29 = conditions: Homo sapiens; HT-29, 10^–5 M; read-out: GI (%)
Excerpt: as §1

IGROV1 = conditions: Homo sapiens, IGROV-1; IGROV1, 10^–5 M; read-out: GI (%)
Excerpt: as §1

K-562 = conditions: Homo sapiens, K562; K-562, 10^–5 M; read-out: GI (%)
Excerpt: as §1

KM12 = conditions: Homo sapiens; KM12, 10^–5 M; read-out: GI (%)
Excerpt: as §1

LOX IMVI = conditions: Homo sapiens, 10^–5 M, read-out: GI (%)
Excerpt: as §1

M14 = conditions: Homo sapiens; M14, 10^–5 M; read-out: GI (%)
Excerpt: as §1

MALME-3M = conditions: Homo sapiens, 10^–5 M, read-out: GI (%)
Excerpt: as §1

MDA-MB-231/ATCC = conditions: Homo sapiens, 10^–5 M, read-out: GI (%)
Excerpt: as §1

NCI-H23 = conditions: Homo sapiens; NCI-H23, 10^–5 M; read-out: GI (%)
Excerpt: as §1

NCI-H322M = conditions: Homo sapiens, 10^–5 M, read-out: GI (%)
Excerpt: as §1

NCI-H460 = conditions: Homo sapiens; NCI-H460, 10^–5 M; read-out: GI (%)
Excerpt: as §1

NCI-H522 = conditions: Homo sapiens; NCI-H522, 10^–5 M; read-out: GI (%)
Excerpt: as §1

OVCAR-3 = conditions: Homo sapiens; OVCAR-3, 10^–5 M; read-out: GI (%)
Excerpt: as §1

OVCAR-4 = conditions: Homo sapiens; OVCAR-4, 10^–5 M; read-out: GI (%)
Excerpt: as §1

OVCAR-8 = conditions: Homo sapiens; OVCAR-8, 10^–5 M; read-out: GI (%)
Excerpt: as §1

PC-3 = conditions: Homo sapiens, PC-3, PC-3, 10^–5 M; read-out: GI (%)
Excerpt: as §1

RPMI-8226 = conditions: Homo sapiens; RPMI-8226, 10^–5 M; read-out: GI (%)
Excerpt: as §1

SF-268 = conditions: Homo sapiens; SF-268, 10^–5 M; read-out: GI (%)
Excerpt: as §1

SF-539 = conditions: Homo sapiens; SF-539, 10^–5 M; read-out: GI (%)
Excerpt: as §1

SK-MEL-2 = conditions: Homo sapiens; SK-MEL-2, 10^–5 M; read-out: GI (%)
Excerpt: as §1

SK-MEL-5 = conditions: Homo sapiens; SK-MEL-5, 10^–5 M; read-out: GI (%)
Excerpt: as §1

SK-OV-3 = conditions: Homo sapiens; SK-OV-3, 10^–5 M; read-out: GI (%)
Excerpt: as §1

SNB-75 = conditions: Homo sapiens; SNB-75, 10^–5 M; read-out: GI (%)
Excerpt: as §1

SR = conditions: Homo sapiens, 10^–5 M, read-out: GI (%)
Excerpt: as §1

SW-620 = conditions: Homo sapiens; SW-620, 10^–5 M; read-out: GI (%)
Excerpt: as §1

TK-10 = conditions: Homo sapiens; TK-10, 10^–5 M; read-out: GI (%)
Excerpt: as §1

UACC-257 = conditions: Homo sapiens; UACC-257, 10^–5 M; read-out: GI (%)
Excerpt: as §1

Compound	inhibition at 10 µM (786-0)	inhibition at 10 µM (A498)	inhibition at 10 µM (CAKI-1)	inhibition at 10 µM (CCRF-CEM)	inhibition at 10 µM (COLO205)	inhibition at 10 µM (DU-145)	inhibition at 10 µM (HCC-2998)	inhibition at 10 µM (HCT-15)	inhibition at 10 µM (HL-60(TB))	inhibition at 10 µM (HOP-92)	inhibition at 10 µM (HT-29)	inhibition at 10 µM (IGROV1)	inhibition at 10 µM (K-562)	inhibition at 10 µM (KM12)	inhibition at 10 µM (LOX IMVI)	inhibition at 10 µM (M14)	inhibition at 10 µM (MALME-3M)	inhibition at 10 µM (MDA-MB-231/ATCC)	inhibition at 10 µM (NCI-H23)	inhibition at 10 µM (NCI-H322M)	further results
O=C1C(Nc2ccc(I)cc2)=CC(c2ccc(F)cc2)N1c1ccc(I)cc1 (stereo not drawn) [3b]	27%	21%	13%	74%	27%	9%	0%	9%	35%	36%	16%	7%	5%	26%	0%	4%	6%	6%	8%	10%	inhibition at 10 µM (NCI-H460): 17%; inhibition at 10 µM (NCI-H522): 26%; inhibition at 10 µM (OVCAR-3): 9%; inhibition at 10 µM (OVCAR-4): 38%; inhibition at 10 µM (OVCAR-8): 8%; inhibition at 10 µM (PC-3): 0%; inhibition at 10 µM (RPMI-8226): 35%; inhibition at 10 µM (SF-268): 68%; inhibition at 10 µM (SF-539): 51%; inhibition at 10 µM (SK-MEL-2): 31%; inhibition at 10 µM (SK-MEL-5): 5%; inhibition at 10 µM (SK-OV-3): 12%; inhibition at 10 µM (SNB-75): 100%; inhibition at 10 µM (SR): 92%; inhibition at 10 µM (SW-620): 24%; inhibition at 10 µM (TK-10): 27%; inhibition at 10 µM (UACC-257): 8%
O=C1C(Nc2ccc(I)cc2)=CC(c2ccc(Cl)cc2)N1c1ccc(I)cc1 (stereo not drawn) [3c]	18%	19%	19%	15%	0%	10%	0%	13%	0%	27%	19%	16%	10%	17%	11%	0%	17%	5%	13%	0%	inhibition at 10 µM (NCI-H460): 7%; inhibition at 10 µM (NCI-H522): 24%; inhibition at 10 µM (OVCAR-3): 9%; inhibition at 10 µM (OVCAR-4): 34%; inhibition at 10 µM (OVCAR-8): 11%; inhibition at 10 µM (PC-3): 1%; inhibition at 10 µM (RPMI-8226): 30%; inhibition at 10 µM (SF-268): 24%; inhibition at 10 µM (SF-539): 11%; inhibition at 10 µM (SK-MEL-2): 43%; inhibition at 10 µM (SK-MEL-5): 18%; inhibition at 10 µM (SK-OV-3): 13%; inhibition at 10 µM (SNB-75): 12%; inhibition at 10 µM (SR): 41%; inhibition at 10 µM (SW-620): 12%; inhibition at 10 µM (TK-10): 1%; inhibition at 10 µM (UACC-257): 23%
O=C1C(Nc2ccc(I)cc2)=CC(c2ccc(Br)cc2)N1c1ccc(I)cc1 (stereo not drawn) [3d]	6%	5%	12%	17%	0%	0%	0%	13%	0%	0%	14%	16%	15%	17%	1%	0%	0%	0%	3%	0%	inhibition at 10 µM (NCI-H460): 0%; inhibition at 10 µM (NCI-H522): 2%; inhibition at 10 µM (OVCAR-3): 5%; inhibition at 10 µM (OVCAR-4): 30%; inhibition at 10 µM (OVCAR-8): 0%; inhibition at 10 µM (PC-3): 0%; inhibition at 10 µM (RPMI-8226): 34%; inhibition at 10 µM (SF-268): 15%; inhibition at 10 µM (SF-539): 0%; inhibition at 10 µM (SK-MEL-2): 16%; inhibition at 10 µM (SK-MEL-5): 20%; inhibition at 10 µM (SK-OV-3): 0%; inhibition at 10 µM (SNB-75): 3%; inhibition at 10 µM (SR): 0%; inhibition at 10 µM (SW-620): 16%; inhibition at 10 µM (TK-10): 0%; inhibition at 10 µM (UACC-257): 3%
